In article PMC10667265 (Scientific Reports, 2023):
Where two headings read alike, the source gives them in different places. Where no end group is shown, it is not given here.

Legend:
[1] = infiltrated into the abaxial side of leaves of potato plants; methanolic extracts of leaf disks; conditions: potato (Solanum tuberosum cv. Désirée), 20 °C, up to 8 h
[2] = for amidated StPIP1_1 remaining: two independent experiments, n = 16 (Fig. 6A)
potato = conditions: used as control for Pep-13; cited from earlier work
Experimental: Potato plants (Solanum tuberosum cv. Désirée) were cultivated in sterile tissue culture in a phytochamber (16 h light, ~ 140 µE, 22 °C). Plants were transferred to steam-sterilized soil and grown for 4 weeks under long day conditions in a phytochamber (16 h light, ~ 140 µE, 60% humidity, 20 °C). PAMP treatment was performed with leaf disks that were cut out from 4-week-old potato plants with a biopsy puncher (4 mm diameter) and placed with the abaxial side onto the surface of 250 µl of water in a 96-well plate. The plate was incubated overnight at 22 °C in the dark. Water from the wells was re ...

[3] = exogenous application to leaves; cited from earlier work
Text: In Arabidopsis, PIPs are encoded by 11 genes. […] Recently, the PAMP-induced peptides StPIP1 to StPIP4 were described in potato (Solanum tuberosum[23]).

Substance: RLPSGPSPRGPGH-NH2
- cleaved bond [1]: H-NH2, within minutes

Substance: VWNQPVRGFKVYE-NH2 [Pep-13, reference compound]
- time within which the amidated peptide was converted to the acidic form ([2]; 100 µM amidated Pep-13 infiltrated into potato leaves, LC-MS, two independent experiments (Fig. 6C)): ≤ 30 min

Substance: VWNQPVRGFKVYE-NH2
- cleaved bond [1]: E-NH2, within 30 min

Substance: VANQPVRGFKVYE [W2A]
- elicitor activity relative to Pep-13 (potato): nearly inactive

Substance: TLGGIKAGPSPGEGHKVVNSHHQ [StPIP1]
- ROS production [3]: does not induce
- increases in the cytosolic Ca2+ concentrations [3]: does not induce

Substance: VWNQPVRGFKVYE [acidic form of Pep-13]
- time within which the acidic form was degraded ([2]; after infiltration of 100 µM amidated Pep-13 into potato leaves, LC-MS (Fig. 6D)): ≤ 1 h

Substance: RLPSGPSPRGPGH-NH2 [StPIP1_1]
- amidated StPIP1_1 remaining ([2]; 100 µM amidated peptide infiltrated into leaves of phytochamber-grown potato plants, 30 min after infiltration, methanolic leaf extracts, LC-MS): 20%
- amidated StPIP1_1 remaining ([2]; 100 µM amidated peptide infiltrated into potato leaves, 1 h after infiltration, LC-MS): 10%
